Source: patent US20100069308A1, “Surfaces containing antibacterial polymers” (priority 2008, published 2010)

What was measured:
B. subtilis = conditions: cited from earlier work
E. coli = conditions: cited from earlier work
Haemophilus influenzae = conditions: cited from earlier work
Psuedomonas aeruginosa = conditions: cited from earlier work
Escherichia coli = conditions: cited from earlier work
Enterococcus faecalis = conditions: cited from earlier work
bacterial colonies = test: Antibacterial activity in the presence of biological serum (FIG. 1, number of bacterial colonies vs concentration); type: cell-based; conditions: after 24 hours in biological serum
Experimental: Due to their mechanism of action, such antibacterial peptides should not be susceptible to resistance. […] In FIG. 1, panels 100A and 100B show the number of bacterial colonies as a function of the concentration of pexiganan 101A/B and ID 1 103 A/B, after 2 and 24 hours respectively, in biological serum. […] Accordingly, a peptide alternative that kills bacteria by a mechanism similar to that of antibacterial peptides but without the biological susceptibility would provide greater protection against bacterial colonization.
FIG. 1 depicts the activity of ID 1 and an antibacterial peptide (pexiganan) in the presence of biological serum.

Streptococcus pneumoniae = conditions: cited from earlier work
Staphylococcus aureus = conditions: cited from earlier work

Row | Substance | B. subtilis MIC (B. subtilis) | E. coli MIC (E. coli) | also measured
1 | H-NLys-Nssb-Nspe-Nssb-Nspe-NLys-Nspe-NLys-Nssb-Nssb-Nspe-NLys-NH2 [ID 15] | 15 µM | 3.1 µM | 
2 | H—(NGlu-Nspe-Nspe)4-NH2 [ID 13] | >219 µM | >219 µM | 
3 | H—(NLys)4-(Nspe)8-NH2 [ID 14] | 1.7 µM | 6.9 µM | 
4 | H—(NLys-Nrpe-Nrpe)4-NH2 [ID 3] | .88 µM | 3.5 µM | 
5 | H—(NLys-Nsmb-Nspe)4-NH2 [ID 7] | .95 µM | 7.4 µM | 
6 | H—(NLys-Nspe-Nspe)2-NH2 [ID 4] | 27 µM | 27 µM | 
7 | H—(NLys-Nspe-Nspe)3-NH2 [ID 5] | 1.2 µM | 9.1 µM | 
8 | H—(NLys-Nspe-Nspe)4-NH2 [ID 1] | .88 µM | 3.5 µM | MIC (Haemophilus influenzae): 6.9 µM; MIC (Psuedomonas aeruginosa): 28 µM; MIC (Escherichia coli): 14 to 28 µM; MIC (Enterococcus faecalis): 3.4 to 6.9 µM; Activity (number of bacterial colonies) in biological serum (bacterial colonies): retains activity; MIC (Streptococcus pneumoniae): 1.7 to 3.4 µM; MIC (Staphylococcus aureus): 3.4 µM
9 | H—(NLys-Nspe-Nspe)5-NH2 [ID 6] | 1.4 µM | 5.5 µM | 
10 | H—(NLys-Nspe-Nspe-NGlu-Nspe-Nspe)2-NH2 [ID 12] | 6.9 µM | >110 µM | 
11 | H—(NLys-Nspe-Nspe-NLys-Nspe-L-Pro-(NLys-Nspe-Nspe)2-NH2 [ID 11] | 1.6 µM | 3.1 µM | 
12 | H—(NLys-Nspe-Nspe-NLys-Nspe-NHis)2-NH2 [ID 10] | 6.9 µM | 3.5 µM | 
13 | H—(NLys-Nspe-Nspe-NLys-Nspe-Nsna)2-NH2 [ID 9] | 1.6 µM | 3.3 µM | 
14 | H—(NLys-Nssb-Nspe)4-NH2 [ID 2] | 3.9 µM | 31 µM | 
15 | H—(NLys-Nssb-Nspe-NLys-Nssb-Nsna)2-NH2 [ID 8] | .93 µM | 7.2 µM | 
